Source: PubChem BioAssay (NCI)
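96-well plates; 48 h exposure; 5 concentrations. Endpoints by linear interpolation between flanking doses. Not reached: highest tested concentration assigned. TGI is the concentration that stops growth completely.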

Legend:
Test in all cases: DTP human tumour cell line panel, 48 h
CAKI-1 renal = system: CAKI-1 renal
SK-MEL-5 melanoma = system: SK-MEL-5 melanoma
CCRF-CEM leukemia = system: CCRF-CEM leukemia
NCI-H460 lung = system: NCI-H460 lung
MDA-MB-435 = system: MDA-MB-435
HS 578T breast = system: HS 578T breast
OVCAR-8 ovarian = system: OVCAR-8 ovarian
HT29 colon = system: HT29 colon
UACC-257 melanoma = system: UACC-257 melanoma
UO-31 renal = system: UO-31 renal
SNB-75 CNS = system: SNB-75 CNS
KM12 colon = system: KM12 colon
HOP-62 NSCLC = system: HOP-62 NSCLC
HCT-116 colon = system: HCT-116 colon
COLO 205 colon = system: COLO 205 colon
SK-MEL-28 melanoma = system: SK-MEL-28 melanoma
UACC-62 melanoma = system: UACC-62 melanoma
SR leukemia = system: SR leukemia
NCI-H522 lung = system: NCI-H522 lung
SK-MEL-2 melanoma = system: SK-MEL-2 melanoma
SF-295 CNS = system: SF-295 CNS
K-562 leukemia = system: K-562 leukemia
NCI/ADR-RES ovarian = system: NCI/ADR-RES ovarian
SW-620 colon = system: SW-620 colon
IGROV1 ovarian = system: IGROV1 ovarian
DU-145 prostate = system: DU-145 prostate
NCI-H23 lung = system: NCI-H23 lung
LOX IMVI melanoma = system: LOX IMVI melanoma
RPMI-8226 leukemia = system: RPMI-8226 leukemia
ACHN renal = system: ACHN renal
M14 melanoma = system: M14 melanoma
SF-268 CNS = system: SF-268 CNS
OVCAR-5 ovarian = system: OVCAR-5 ovarian
HCT-15 colon = system: HCT-15 colon
OVCAR-3 ovarian = system: OVCAR-3 ovarian
SN12C renal = system: SN12C renal
A549 NSCLC = system: A549 NSCLC
SF-539 CNS = system: SF-539 CNS
786-0 renal = system: 786-0 renal
T-47D breast = system: T-47D breast
PC-3 prostate = system: PC-3 prostate
MCF7 breast = system: MCF7 breast
MOLT-4 leukemia = system: MOLT-4 leukemia
MDA-N = system: MDA-N
SNB-19 CNS = system: SNB-19 CNS
TK-10 renal = system: TK-10 renal
EKVX NSCLC = system: EKVX NSCLC
MDA-MB-231 breast = system: MDA-MB-231 breast
U251 CNS = system: U251 CNS
MALME-3M melanoma = system: MALME-3M melanoma
HL-60(TB) leukemia = system: HL-60(TB) leukemia
RXF 393 renal = system: RXF 393 renal
HCC-2998 colon = system: HCC-2998 colon

Work on `COc1ccc(C2c3cc4c(cc3OC(N3CCCCC3)C2C)OCO4)cc1` (stereo not drawn) yielded a TGI (CAKI-1 renal) of 84.9 µM, a TGI (SK-MEL-5 melanoma) of over 100 µM and a TGI (CCRF-CEM leukemia) of over 100 µM. It also gave a TGI (NCI-H460 lung) of over 100 µM, a TGI (MDA-MB-435) of over 100 µM and a TGI (HS 578T breast) of 87.8 µM. It also gave a TGI (OVCAR-8 ovarian) of over 100 µM, a TGI (HT29 colon) of over 100 µM and a TGI (UACC-257 melanoma) of over 100 µM. The TGI (UO-31 renal) was over 100 µM, the TGI (SNB-75 CNS) was over 100 µM and the TGI (KM12 colon) was over 100 µM. It also gave a TGI (HOP-62 NSCLC) of over 100 µM, a TGI (HCT-116 colon) of over 100 µM and a TGI (COLO 205 colon) of over 100 µM. The TGI (SK-MEL-28 melanoma) was over 100 µM, the TGI (UACC-62 melanoma) was over 100 µM and the TGI (SR leukemia) was over 100 µM. The TGI (NCI-H522 lung) was over 100 µM, the TGI (SK-MEL-2 melanoma) was over 100 µM and the TGI (SF-295 CNS) was over 100 µM. The TGI (K-562 leukemia) was over 100 µM, the TGI (NCI/ADR-RES ovarian) was over 100 µM and the TGI (SW-620 colon) was over 100 µM. For the same compound, the TGI (IGROV1 ovarian) was over 100 µM, the TGI (DU-145 prostate) was over 100 µM and the TGI (NCI-H23 lung) was over 100 µM. The TGI (LOX IMVI melanoma) was over 100 µM, the TGI (RPMI-8226 leukemia) was over 100 µM and the TGI (ACHN renal) was over 100 µM. The TGI (M14 melanoma) was over 100 µM, the TGI (SF-268 CNS) was over 100 µM and the TGI (OVCAR-5 ovarian) was over 100 µM. It also gave a TGI (HCT-15 colon) of over 100 µM, a TGI (OVCAR-3 ovarian) of over 100 µM and a TGI (SN12C renal) of over 100 µM. It also gave a TGI (A549 NSCLC) of over 100 µM, a TGI (SF-539 CNS) of over 100 µM and a TGI (786-0 renal) of over 100 µM. It also gave a TGI (T-47D breast) of over 100 µM, a TGI (PC-3 prostate) of over 100 µM and a TGI (MCF7 breast) of over 100 µM. For the same compound, the TGI (MOLT-4 leukemia) was over 100 µM, the TGI (MDA-N) was over 100 µM and the TGI (SNB-19 CNS) was over 100 µM. For the same compound, the TGI (TK-10 renal) was over 100 µM and the TGI (EKVX NSCLC) was over 100 µM.
For `COc1cc(CNc2nc3cc(C(F)(F)F)ccc3nc2C)cc(OC)c1OC`, the TGI (MDA-MB-231 breast) was 29.3 µM, the TGI (CAKI-1 renal) was 96.4 µM and the TGI (SK-MEL-5 melanoma) was 46.9 µM. It also gave a TGI (CCRF-CEM leukemia) of 62.6 µM, a TGI (NCI-H460 lung) of 36 µM and a TGI (U251 CNS) of 36.7 µM. The TGI (MDA-MB-435) was 55.5 µM, the TGI (HS 578T breast) was 39.7 µM and the TGI (OVCAR-8 ovarian) was over 100 µM. For the same compound, the TGI (HT29 colon) was 33.6 µM, the TGI (UACC-257 melanoma) was 37.9 µM and the TGI (UO-31 renal) was 63.9 µM. The TGI (SNB-75 CNS) was 57.1 µM, the TGI (MALME-3M melanoma) was 41.8 µM and the TGI (KM12 colon) was 40 µM. For the same compound, the TGI (HOP-62 NSCLC) was 71.3 µM, the TGI (HCT-116 colon) was 72.2 µM and the TGI (COLO 205 colon) was 30.2 µM. For the same compound, the TGI (SK-MEL-28 melanoma) was 65 µM, the TGI (HL-60(TB) leukemia) was 51.9 µM and the TGI (SR leukemia) was 76.1 µM. The TGI (NCI-H522 lung) was 48.5 µM, the TGI (SF-295 CNS) was 46.5 µM and the TGI (K-562 leukemia) was 73.9 µM. For the same compound, the TGI (SW-620 colon) was 33.6 µM, the TGI (IGROV1 ovarian) was 33.3 µM and the TGI (DU-145 prostate) was over 100 µM. It also gave a TGI (NCI-H23 lung) of 76.1 µM, a TGI (LOX IMVI melanoma) of 27.8 µM and a TGI (RPMI-8226 leukemia) of 65.7 µM. The TGI (ACHN renal) was 38.1 µM, the TGI (M14 melanoma) was 30.8 µM and the TGI (SF-268 CNS) was over 100 µM. It also gave a TGI (HCT-15 colon) of 32.8 µM, a TGI (RXF 393 renal) of 44.7 µM and a TGI (OVCAR-3 ovarian) of over 100 µM. It also gave a TGI (SN12C renal) of 30.8 µM, a TGI (A549 NSCLC) of over 100 µM and a TGI (SF-539 CNS) of 62.2 µM. The TGI (HCC-2998 colon) was 37.8 µM, the TGI (T-47D breast) was 40.4 µM and the TGI (MOLT-4 leukemia) was 50.7 µM. The TGI (MDA-N) was 33.2 µM, the TGI (SNB-19 CNS) was over 100 µM and the TGI (TK-10 renal) was 42.6 µM. For the same compound, the TGI (EKVX NSCLC) was 67.4 µM.
